What all share (format): in vitro ADME
The nature of data set [1]: Stability in simulated intestinal fluid (SIF). Particulars: simulated intestinal fluid with pancreatin, pH 6.8, 37° C., matrix is 100 fold dilution of standard SIF concentration; for half-life at 20 μM: read-out: SIF t½ (converted).
Data set [2] is described as follows: Stability in human fecal homogenate. Particulars: 20% fecal homogenate (supernatant), pH 6.8, 20% human fecal homogenate, anaerobic, 37° C., read-out: t½: Human Feces anaerobic (converted). The method, then: (§1) Centrifuged the homogenate at 2800×g for 15 min. The supernatant is taken out and used for incubations. […] The final test compound concentration was 20 μM.

A short description of data set [3]: Stability in cynomolgus monkey fecal homogenate. As to conditions: 20% fecal homogenate (supernatant), pH 6.8, 20% cynomolgus monkey fecal homogenate, anaerobic, 37° C., read-out: t½: Monkey Feces anaerobic (converted). The method, then: as §1
A short description of a further data set: Stability in rat plasma. Particulars: both sexes, SD rat plasma, EDTA, 37° C., read-out: t½: Rat Plasma EDTA (converted).

Numbered stars: 1 amine (or outer) side, 2 acyl side, 3 side chain; on linkers, the order of the positions; unused ones are H or OH. Bridge positions count the residues as written; N and C are the ends. Square brackets hold non-standard residues; d marks the D form. Peptide text beside a SMILES is read from it. X3 = CCc1ccc2c(C[C@H](N[*:1])C(=O)[*:2])c[nH]c2c1; Trp(7-Me) = Cc1cccc2c(C[C@H](N)C(=O)O)c[nH]c12; 2Nal = N[C@@H](Cc1ccc2ccccc2c1)C(=O)O; d2Nal = N[C@H](Cc1ccc2ccccc2c1)C(=O)O; AEF = NCCOc1ccc(C[C@H](N)C(=O)O)cc1; Cit = NC(=O)NCCC[C@H](N)C(=O)O; Pen = CC(C)(S)[C@H](N)C(=O)O; αMeK = C[C@](N)(CCCCN)C(=O)O; Aib = CC(C)(N)C(=O)O

These results are taken from patent US11041000B2, “Peptide inhibitors of interleukin-23 receptor and their use to treat inflammatory diseases” (priority 2019, dated 2021).

Procedure for Stability in rat plasma: Peptides of interest (20 μM) were incubated with pre-warmed rat plasma (SD rat, mixed gender pooled, EDTA, filtered through 0.22 μm, BioreclamationIVT) at 37° C. […] Quenched samples were stored at 4° C. until the end of the experiment and centrifuged at 4,000 rpm for 10 minutes. The supernatant were diluted 1:1 with deionized water and analyzed using LC-MS. Percentage remaining at each time point was calculated based on the peak area ratio (analyte over internal standard) relative to the initial level at time zero. Half-lives were calculated by fitting to a first-order exponential decay equation using GraphPad.

Consider `CC(=O)NCCCC[C@H](NC(=O)[C@](C)(CCCCN)NC(=O)[C@H](Cc1ccc2ccccc2c1)NC(=O)[C@H](Cc1ccc(OCCN)cc1)NC(=O)[C@H]1NC(=O)[C@H](CCCNC(N)=O)NC(=O)[C@H](Cc2c[nH]c3c(C)cccc23)NC(=O)[C@H]([C@@H](C)O)NC(=O)[C@H](CC(N)=O)NC(=O)[C@@H](NC(C)=O)C(C)(C)SSC1(C)C)C(=O)N[C@@H](CC(N)=O)C(=O)NC(C)(C)C(=O)NCC(N)=O` [compound 341] (Ac-[Pen]NT[Trp(7-Me)][Cit][Pen][AEF][2Nal][αMeK]K(Ac)N[Aib]G-NH2; disulfide 1-6), for which the half-life at 20 μM in data set [1] is 17 h; in data set [2], over 24 h; in data set [3], over 24 h; in the data set “Stability in rat plasma”, over 24 h.

Consider `CC(=O)NCCCC[C@H](NC(=O)[C@](C)(CCCCN)NC(=O)[C@H](Cc1ccc2ccccc2c1)NC(=O)[C@H](Cc1ccc(OCCN)cc1)NC(=O)[C@H]1NC(=O)[C@H](CCCNC(N)=O)NC(=O)[C@H](Cc2c[nH]c3c(C)cccc23)NC(=O)[C@H]([C@@H](C)O)NC(=O)[C@H](CC(N)=O)NC(=O)[C@@H](NC(C)=O)C(C)(C)SSC1(C)C)C(=O)N[C@@H](CC(N)=O)C(=O)NC(C)(C)C(=O)N[C@@H](C)C(N)=O` [compound 342] (Ac-[Pen]NT[Trp(7-Me)][Cit][Pen][AEF][2Nal][αMeK]K(Ac)N[Aib]A-NH2; disulfide 1-6), for which the half-life at 20 μM in data set [1] is 16 h; in data set [2] it was 12 h; in data set [3], 15 h; in the data set “Stability in rat plasma” it was over 24 h.

With `CC(=O)NCCCC[C@H](NC(=O)[C@](C)(CCCCN)NC(=O)[C@H](Cc1ccc2ccccc2c1)NC(=O)[C@H](Cc1ccc(OCCN)cc1)NC(=O)[C@H]1NC(=O)[C@H](CCCNC(N)=O)NC(=O)[C@H](Cc2c[nH]c3c(C)cccc23)NC(=O)[C@H]([C@@H](C)O)NC(=O)[C@H](CC(N)=O)NC(=O)[C@@H](NC(C)=O)C(C)(C)SSC1(C)C)C(=O)N[C@@H](CC(N)=O)C(=O)NC(C)(C)C(=O)N[C@H](CCCCN)C(N)=O` [compound 344] (Ac-[Pen]NT[Trp(7-Me)][Cit][Pen][AEF][2Nal][αMeK]K(Ac)N[Aib][dK]-NH2; disulfide 1-6), the half-life at 20 μM in data set [1] was 9 h; in data set [2], over 24 h; in data set [3], over 24 h; in the data set “Stability in rat plasma” it was over 24 h.

For `CC(=O)NCCCC[C@H](NC(=O)[C@](C)(CCCCN)NC(=O)[C@H](Cc1ccc2ccccc2c1)NC(=O)[C@H](Cc1ccc(OCCN)cc1)NC(=O)[C@H]1NC(=O)[C@H](CCCNC(N)=O)NC(=O)[C@H](Cc2c[nH]c3c(C)cccc23)NC(=O)[C@H]([C@@H](C)O)NC(=O)[C@H](CC(N)=O)NC(=O)[C@@H](NC(C)=O)C(C)(C)SSC1(C)C)C(=O)N[C@@H](CC(N)=O)C(=O)NC(C)(C)C(=O)N[C@H](Cc1ccccc1)C(N)=O` [compound 346] (Ac-[Pen]NT[Trp(7-Me)][Cit][Pen][AEF][2Nal][αMeK]K(Ac)N[Aib][dF]-NH2; disulfide 1-6), the half-life at 20 μM was 19 h in data set [1], over 24 h in data set [2], over 24 h in data set [3] and 24 h in “Stability in rat plasma”.

For `CC(=O)NCCCC[C@H](NC(=O)[C@](C)(CCCCN)NC(=O)[C@H](Cc1ccc2ccccc2c1)NC(=O)[C@H](Cc1ccc(OCCN)cc1)NC(=O)[C@H]1NC(=O)[C@H](CCCNC(N)=O)NC(=O)[C@H](Cc2c[nH]c3c(C)cccc23)NC(=O)[C@H]([C@@H](C)O)NC(=O)[C@H](CC(N)=O)NC(=O)[C@@H](NC(C)=O)C(C)(C)SSC1(C)C)C(=O)N[C@@H](CC(N)=O)C(=O)NC(C)(C)C(=O)N[C@H](Cc1ccc(O)cc1)C(N)=O` [compound 347] (Ac-[Pen]NT[Trp(7-Me)][Cit][Pen][AEF][2Nal][αMeK]K(Ac)N[Aib][dY]-NH2; disulfide 1-6), the half-life at 20 μM in data set [1] was 12 h; in data set [2] it was over 24 h; in data set [3] it was over 24 h; in “Stability in rat plasma” it was over 24 h.

As to `CC(=O)NCCCC[C@H](NC(=O)[C@](C)(CCCCN)NC(=O)[C@H](Cc1ccc2ccccc2c1)NC(=O)[C@H](Cc1ccc(OCCN)cc1)NC(=O)[C@H]1NC(=O)[C@H](CCCNC(N)=O)NC(=O)[C@H](Cc2c[nH]c3c(C)cccc23)NC(=O)[C@H]([C@@H](C)O)NC(=O)[C@H](CC(N)=O)NC(=O)[C@@H](NC(C)=O)C(C)(C)SSC1(C)C)C(=O)N[C@@H](CC(N)=O)C(=O)NC(C)(C)C(=O)N[C@H](Cc1ccc2ccccc2c1)C(N)=O` [compound 348] (Ac-[Pen]NT[Trp(7-Me)][Cit][Pen][AEF][2Nal][αMeK]K(Ac)N[Aib][d2Nal]-NH2; disulfide 1-6), the half-life at 20 μM was 13 h in data set [1], over 24 h in data set [2], over 24 h in data set [3] and over 24 h in “Stability in rat plasma”.

Take `CCc1ccc2c(C[C@@H]3NC(=O)[C@H]([C@@H](C)O)NC(=O)[C@H](CC(N)=O)NC(=O)[C@@H](NC(C)=O)C(C)(C)SSC(C)(C)[C@@H](C(=O)N[C@@H](Cc4ccc(OCCN)cc4)C(=O)N[C@@H](Cc4ccc5ccccc5c4)C(=O)N[C@@](C)(CCCCN)C(=O)N[C@@H](CCCCNC(C)=O)C(=O)N[C@@H](CC(N)=O)C(=O)N[C@H](CCCCN)C(N)=O)NC(=O)[C@H](CCCCNC(C)=O)NC3=O)c[nH]c2c1` [compound 349] (Ac-[Pen]NT[X3]K(Ac)[Pen][AEF][2Nal][αMeK]K(Ac)N[dK]-NH2; disulfide 1-6): the “SIF t½” value in data set [1] (20 μM) is 24 h. Also, the half-life at 20 μM (in data set [2]; in data set [3]; in the data set “Stability in rat plasma”) was over 24 h throughout.

As to `CC(=O)NCCCC[C@@H]1NC(=O)[C@H](Cc2c(C)[nH]c3ccccc23)NC(=O)[C@H]([C@@H](C)O)NC(=O)[C@H](CC(N)=O)NC(=O)[C@@H](NC(C)=O)C(C)(C)SSC(C)(C)[C@@H](C(=O)N[C@@H](Cc2ccc(OCCN)cc2)C(=O)N[C@@H](Cc2ccc3ccccc3c2)C(=O)N[C@@](C)(CCCCN)C(=O)N[C@@H](CCCCNC(C)=O)C(=O)N[C@@H](CC(N)=O)C(=O)N[C@H](CCCCN)C(N)=O)NC1=O` [compound 351], the half-life at 20 μM is 12 h in data set [1], over 24 h in data set [2], over 24 h in data set [3] and over 24 h in the data set “Stability in rat plasma”.

Consider `CC(=O)NCCCC[C@@H]1NC(=O)[C@H](Cc2c[nH]c3c(C)cccc23)NC(=O)[C@H]([C@@H](C)O)NC(=O)[C@H](CC(N)=O)NC(=O)[C@@H](NC(C)=O)C(C)(C)SSC(C)(C)[C@@H](C(=O)N[C@@H](Cc2ccc(OCCN)cc2)C(=O)N[C@@H](Cc2ccc3ccccc3c2)C(=O)N[C@@](C)(CCCCN)C(=O)N[C@@H](CCCCNC(C)=O)C(=O)N[C@@H](CO)C(=O)N[C@H](CCCCN)C(N)=O)NC1=O` [compound 352], for which the half-life at 20 μM in data set [1] was 7 h; in data set [2], over 24 h; in data set [3] it was over 24 h; in “Stability in rat plasma” it was over 24 h.
